Laboratory results taken from paper PMC7897990, “TriTOX: A novel Trichomonas vaginalis assay platform for high-throughput screening of compound libraries” (International Journal for Parasitology: Drugs and Drug …, 2021).
Read-outs that look alike come from different tables or passages of the source.

Tests used:
[1] = system: Trichomonas vaginalis G3 trophozoites
[2] = system: nontumorigenic neonatal foreskin fibroblast (NFF) cell line
[3] = replicate 1; parasite screen at 1 µg/mL
[4] = replicate 2; parasite screen at 1 µg/mL
[5] = HTS single concentration, parasite screen 1 µg/mL, replicate 1
[6] = HTS single concentration, parasite screen 1 µg/mL, replicate 2
[7] = NFF_NS1 screen 5 µg/mL, single concentration
[8] = parasite screen at 1 µg/mL, replicate 1
[9] = parasite screen at 1 µg/mL, replicate 2
[10] = NFF_NS1 screen at 5 µg/mL, NFF cells

Structure (SMILES)	T.vaginalis_%inb_Rep1 [1, 3] [%]	T.vaginalis_%inb_Rep2 [1, 4] [%]	NFF_Activity ([2]; NFF cells, screen at 5 µg/mL)	T.vaginalis_%inb_Rep1 [1, 8] [%]	T.vaginalis_%inb_Rep2 [1, 9] [%]	NFF_Activity [2, 10]	other results
CCC(C=CC1OC(=O)C=CC1C)=CC(C)CC=CC(C)=CC(C)C(=O)C(C)C(O)C(C)CC(C)=CC(=O)O (stereo not drawn) [BIA-L1046]	99.95	96.86	A (active (A) compounds having >25% inhibitory activity)	–	–	–	–
COc1cc(O)c2c(c1)C=CCC(O)C(O)C(=O)C=CCC(C)OC2=O (stereo not drawn) [BIA-L1160]	12.27	12.76	I (otherwise these were reported as inactive (I))	–	–	–	–
CC[C@H](C)C(=O)O[C@H]1C[C@@H](C)C=C2C=C[C@H](C)[C@H](CC[C@@H]3C[C@@H](O)CC(=O)O3)[C@H]21 [BIA-L1264]	13.08	12.64	A (active (A) compounds having >25% inhibitory activity)	–	–	–	–
CCC[C@@H]1C[C@@H](C(=O)N[C@@H]([C@H]2O[C@H](SC)[C@H](O)[C@@H](O)[C@H]2O)[C@@H](C)O)N(C)C1 [BIA-L1457]	12.27	9.94	I (otherwise these were reported as inactive (I))	–	–	–	–
CCC(C(=O)C(C)C(O)C(C)CCc1ccc(C)c(O)c1C(=O)O)C1OC(CC)(C2CCC(O)(CC)C(C)O2)CC1C (stereo not drawn) [BIA-L1533]	11.71	10.90	I (otherwise these were reported as inactive (I))	–	–	–	–
Cc1cc(OC(=O)c2c(C)cc(O)cc2O)cc(O)c1C(=O)O [BIA-L1669]	11.51	3.53	I (otherwise these were reported as inactive (I))	–	–	–	–
CCCCCc1c2c(cc(O)c1C(=O)O)OC(=O)c1c(cc(OC)cc1C(=O)CCCC)O2 [BIA-L1671]	10.45	14.37	I (otherwise these were reported as inactive (I))	–	–	–	–
CC1(C)OC2CC(=O)OCC23C1CC(=O)C1(C)C3CCC2(C)C(c3ccoc3)OC(=O)C3OC321 (stereo not drawn) [BIA-L1755]	11.46	13.09	I (otherwise these were reported as inactive (I))	–	–	–	–
C=C(C)C1CCC2(C)CCC3(C)C(CCC4C5(C)CCC(O)C(C)(C)C5CCC43C)C12 (stereo not drawn) [BIA-L1759]	12.73	12.70	I (otherwise these were reported as inactive (I))	–	–	–	–
O=C1CCC[C@@H]2[C@H]3C[C@@H](CN12)[C@@H]1CCCCN1C3 [BIA-L1951]	8.91	11.70	I (otherwise these were reported as inactive (I))	–	–	–	–
COc1c(-c2ccccc2)c2ccccc2[nH]c1=O [BIA-M1149]	20.69	13.28	I (otherwise these were reported as inactive (I))	–	–	–	–
CCC(C)C(=O)OC1CCC=C2C=CC(C)C(CCC3CC(O)CC(=O)O3)C21 (stereo not drawn) [BIA-M1209]	12.32	10.01	I (otherwise these were reported as inactive (I))	–	–	–	–
COc1cccc2oc3c4c(cc(OC)c3c(=O)c12)OC1OC=CC41 (stereo not drawn) [BIA-M1214]	13.54	12.19	I (otherwise these were reported as inactive (I))	–	–	–	–
CC=CC(C)=CC(C)C(=O)CC(O)CC1CC(=O)NC(=O)C1 (stereo not drawn) [BIA-M1404]	–	–	–	–	–	–	T.vaginalis_%inb_Rep1 [1, 5]: 18.76%; T.vaginalis_%inb_Rep2 [1, 6]: 13.41%; NFF_Activity [2, 7]: I (otherwise these were reported as inactive (I))
C=C1c2c(Cl)ccc(O)c2C(O)=C2C(=O)C3(O)C(O)=C(C(N)=O)C(=O)C(N(C)C)C3C(O)C12 (stereo not drawn) [BIA-M1464]	17.14	5.39	I (otherwise these were reported as inactive (I))	–	–	–	–
C=C1c2cccc(O)c2C(O)=C2C(=O)C3(O)C(O)=C(C(N)=O)C(=O)C(N(C)C)C3C(O)C12 (stereo not drawn) [BIA-M1467]	12.78	4.43	I (otherwise these were reported as inactive (I))	–	–	–	–
Cc1cccc(O)c1C(=O)O [BIA-M1655]	11.00	14.69	I (otherwise these were reported as inactive (I))	–	–	–	–
Cc1cc(O)c(C)c(O)c1C(=O)O [BIA-M1661]	12.78	12.06	A (active (A) compounds having >25% inhibitory activity)	–	–	–	–
C=C(C)[C@@H]1CC[C@]2(C(=O)OC)CC[C@]3(C)[C@H](CC[C@@H]4[C@@]5(C)CC[C@H](O)C(C)(C)[C@@H]5CC[C@]43C)[C@@H]12 [BIA-M1757]	–	–	–	–	–	–	T.vaginalis_%inb_Rep1 [1, 5]: 14.81%; T.vaginalis_%inb_Rep2 [1, 6]: 16.56%; NFF_Activity [2, 7]: I (otherwise these were reported as inactive (I))

Structure (SMILES)	T.vaginalis_%inb_Rep1 [1, 3] [%]	T.vaginalis_%inb_Rep2 [1, 4] [%]	NFF_Activity ([2]; NFF cells, screen at 5 µg/mL)	T.vaginalis_%inb_Rep1 [1, 8] [%]	T.vaginalis_%inb_Rep2 [1, 9] [%]	NFF_Activity [2, 10]	other results
CCCCC(C)C=C(C)C=C(C)C(=O)NC1=CC(O)(C=CC=CC=CC(=O)NC2=C(O)CCC2=O)C2OC2C1=O (stereo not drawn) [BIA-M1905]	10.60	12.76	I (otherwise these were reported as inactive (I))	–	–	–	–
COc1ccc2[nH]c3c(C)c4ccncc4c(C)c3c2c1 [BIA-M1952]	5.30	7.25	A (active (A) compounds having >25% inhibitory activity)	–	–	–	–
CN[C@@H]1C[C@H]2O[C@@](C)([C@@H]1OC)n1c3ccccc3c3c4c(c5c6ccccc6n2c5c31)C(=O)NC4=O [BIA-O1137]	–	–	–	–	–	–	T.vaginalis_%inb_Rep1 [1, 5]: 63.59%; T.vaginalis_%inb_Rep2 [1, 6]: 75.50%; NFF_Activity [2, 7]: A (active (A) compounds having >25% inhibitory activity)
CO[C@H]1[C@H](O)[C@@H](O)[C@H](n2c3c(Cl)cccc3c3c4c(c5c6cccc(Cl)c6[nH]c5c32)C(=O)NC4=O)O[C@@H]1CO [BIA-R1075]	–	–	–	10.49	13.95	I (otherwise these were reported as inactive (I))	–
COc1c(O)cc2cc(C)oc(=O)c2c1O [BIA-R1077]	–	–	–	14.76	13.92	I (otherwise these were reported as inactive (I))	–
CCCCCCCCCCCCCCCC(=O)C1=C(O)C(CO)OC1=O (stereo not drawn) [BIA-R1082]	–	–	–	10.55	12.25	I (otherwise these were reported as inactive (I))	–
C=CC(C)(C)[C@@]12C[C@H]3C(=O)N/C(=C/c4c[nH]cn4)C(=O)N3[C@@H]1Nc1ccccc12 [BIA-R1083]	–	–	–	13.69	4.87	A (active (A) compounds having >25% inhibitory activity)	–
C[C@@H]1C[C@H]2O[C@@H]2/C=C\C=C\C(=O)Cc2c(Cl)c(O)cc(O)c2C(=O)O1 [BIA-R1148]	–	–	–	12.83	10.33	A (active (A) compounds having >25% inhibitory activity)	–
CO[C@H]1C[C@@H]2CC[C@@H](C)[C@@](O)(O2)C(=O)C(=O)N2CCCC[C@H]2C(=O)O[C@H]([C@H](C)C[C@@H]2CC[C@@H](O)[C@H](OC)C2)CC(=O)[C@H](C)/C=C(\C)[C@@H](O)[C@@H](OC)C(=O)[C@H](C)C[C@H](C)/C=C/C=C/C=C/1C [BIA-R1183]	–	–	–	10.28	12.55	I (otherwise these were reported as inactive (I))	–
CC[C@H]1OC(=O)[C@H](C)[C@@H](O[C@H]2C[C@@](C)(OC)[C@@H](O)[C@H](C)O2)[C@H](C)[C@@H](O[C@@H]2O[C@H](C)C[C@H](N(C)C)[C@H]2O)[C@](C)(O)C[C@@H](C)/C(=N\OCOCCOC)[C@H](C)[C@@H](O)[C@]1(C)O [BIA-R1315]	–	–	–	1.36	5.85	I (otherwise these were reported as inactive (I))	–
CO[C@H]1C[C@@H]2CC[C@@H](C)[C@@](O)(O2)C(=O)C(=O)N2CCCC[C@H]2C(=O)O[C@H]([C@H](C)C[C@@H]2CC[C@@H](OP(C)(C)=O)[C@H](OC)C2)CC(=O)[C@H](C)/C=C(\C)[C@@H](O)[C@@H](OC)C(=O)[C@H](C)C[C@H](C)/C=C/C=C/C=C/1C [BIA-R1450]	–	–	–	8.81	19.01	I (otherwise these were reported as inactive (I))	–
CN(C)[C@@H]1C(O)=C(C(=O)NCN2CCCC2)C(=O)[C@@]2(O)C(O)=C3C(=O)c4c(O)cccc4[C@@](C)(O)[C@H]3C[C@@H]12 [BIA-R1460]	–	–	–	13.95	12.12	I (otherwise these were reported as inactive (I))	–
C=CC1(C)CC(OC(=O)CSC2CC3CCC(C2)N3C)C2(C)C(C)CCC3(CCC(=O)C32)C(C)C1O (stereo not drawn) [BIA-R1491]	–	–	–	10.45	11.55	I (otherwise these were reported as inactive (I))	–
Cc1cc2nc3c(=O)[nH]c(=O)nc-3n(C[C@H](O)[C@H](O)[C@H](O)CO)c2cc1N(C)C [BIA-R1535]	–	–	–	11.33	14.32	I (otherwise these were reported as inactive (I))	–
C/C=C/c1cc2c(c(=O)o1)[C@H](O)[C@@H](O)[C@H](C)O2 [BIA-R1896]	–	–	–	13.39	5.58	I (otherwise these were reported as inactive (I))	–
CCCCCCCCCCCC[C@@H](C(=O)O)[C@H](C)C(=O)O [BIA-R1904]	–	–	–	13.79	5.71	I (otherwise these were reported as inactive (I))	–
COC(=O)C1=CO[C@@H](C)[C@@H]2CN3CCc4c([nH]c5cc(OC)c(OC)cc45)[C@H]3C[C@H]12 [BIA-R1946]	–	–	–	11.06	13.59	I (otherwise these were reported as inactive (I))	–
CN[C@@H]1C[C@H]2O[C@@](C)([C@@H]1OC)n1c3ccccc3c3c4c(c5c6ccccc6n2c5c31)C(=O)NC4 [BIA-S1086]	–	–	–	72.52	83.24	A (active (A) compounds having >25% inhibitory activity)	–
